Test results from patent publication US20240189263A1, “DERIVATIZED C60 MOLECULES AND METHODS AND MATERIALS FOR USING DERIVATIZED C60 MOLECULES TO REDUCE RADIATION INJURY” (Mayo Foundation for Medical Education and Research, priority 2021, published 2024).

Columns and labels:
NIH3T3 cells = experiment: MTS cytotoxicity assay, NIH3T3; format: cell-based
Protocol: Cytotoxicity of C60-ser was determined by an MTS (3-(4,5-dimethylthiazol-2-yl)-5-(3-carboxymethoxyphenyl)-2-(4-sulfophenyl)-2H-tetrazolim) colorimetric assay on four different cell lines, each representing a different cell type. Specifically, HepG2 (liver epithelium), HUVEC (endothelial cells), N2A (neuroblastoma cells representative of normal neurons), and NIH3T3 (fibroblasts) were analyzed. The cells were seed in a 96-well tissue culture polystyrene plate at different seeding concentrations based on the cell's doubling time. HUVEC cells were seeded at 10,000 cells/well (24 hour experiments), 8,000 cells/well (48 hour experiments), and 5,000 cells/well (72 hour experiments), and incubated for 24 hours in a humidified atmosphere with 5% C02 at 37° C. […] After incubation with MTS, the optical density (OD) of the resulting formazan solution was read at 490 nm using a microplate reader (Biotek Cytation 5 cell Imaging Multi-Mode reader, Winooski, VT). The cell viability was obtained by normalizing the absorbance of the sample with that of the control wells containing untreated cells. The cell viability was expressed as a percentage, assigning the viability of non-treated cells as 100%. […]

N2A cells [1] = experiment: Seahorse mitochondrial respiration (oxygen consumption rate), N2A; format: cell-based; details: pretreated 2 hours before 1 Gy 230 MeV proton
Protocol: (§1) The oxygen consumption rates were assessed in N2A, HUVEC, NIH3T3, and HepG2 cell lines with a Seahorse XFe96 (Agilent Technologies, Santa Clara, CA, USA). Cells were treated with 0 and 1 Gy of 230 MeV proton irradiation. The control plates were run at about the same time post plating. Each cell line was optimized prior to these experiments, and data was presented normalized to cell number plated. The standard mitochondrial stress test was performed using serial injections of oligomycin (1.5 μM), carbonyl cyanide p-(trifluoromethoxy)phenylhydrazone (FCCP, 1 μM), and rotenone/antimycin A mixture (0.5 μM). After injection of oligomycin, which inhibits ATP synthase (complex V), there was a drop in electron flow through the electron transport chain (ETC) and a resultant drop in oxygen consumption rate (OCR) of the cells. Injection of FCCP collapsed the proton gradient and allowed for uninhibited electron flow through the ETC supercomplexes. […] The reserve respiratory capacity was calculated by subtracting the basal respiratory capacity from the maximal respiratory capacity.

N2A cells [2] = experiment: ROS by H2-DCFDA probe after proton irradiation, N2A; format: cell-based; details: pretreated 100 μM, TBHP 200 μM, 1 Gy proton, read 30 minutes post radiation
Text: Cell lines were irradiated using pencil beam scanning (PBS) proton beams produced by IBA ProteusOne (Ion Beam Applications, Louvain-la-Neuve, Belgium). Single layer mono-energy 227 MeV pencil beams with uniform spacing of 0.25 cm between each spot were used to create a large field size with uniform dose distribution (±2%) that encompassed all sample wells containing the cells. A fixed source to surface distance (SSD) setup and gantry at 180 degrees was used to delivery 0.5, 1, 2, 4, and 6 Gray (Gy) dose of ionizing radiation to cells. The cells were place at an 8 cm depth, with a linear energy transfer (LET) of approximately 1.7 keV/μm, using solid water slabs as a buildup. […] The monitor units needed to deliver the intended dose were calculated using the measure dose/MU values.
Post radiation, 2′,7′-dichlorodihydrofluorescein diacetate (H2-DCFDA) probes were used to measure the level of reactive oxygen species (ROS) post-proton radiation (1 Gy, 230 MeV proton beam). […] A fluorescence microplate reader (SpectraMax M5, Molecular Devices Corporation, California, USA) was used to detect the generation of fluorescent DCF molecules with an excitation filter of 485 nm and an emission filter of 525 nm, with a 515 nm cutoff filter. […] Following irradiation, the cells were transported back for plate reading, 30 minutes post radiation.

HUVEC cells = experiment: Seahorse mitochondrial respiration (oxygen consumption rate), HUVEC; format: cell-based; details: pretreated 2 hours before 1 Gy 230 MeV proton
Protocol: as §1

[3] = Stability of C60-ser, hexakis-adduct peak by HPLC-ELSD; format: physicochemical
Protocol: Stability of the C60-ser product as prepared in Example 1 was analyzed by measuring the hexakis-adduct peak with high performance liquid chromatography (HPLC) equipped with evaporative light scattering detector (ELSD). The C60-ser was stored as a solid form at 4° C. under nitrogen, as a solution in DI water at 4° C., and as a solution in DI water at room temperature. The stability of the C60-ser in each set of storage conditions was measured at 1, 7, 28, and 120 days (Table 1).

O=C(NC(CO)CO)C1(C(=O)NC(CO)CO)C23c4c5c6c7c8c4-c4c2c2c9c%10c4C4%11c%12c-%10c%10c%13c%14c%12-c%12c(c-7c7c%15c%12C%14%12C(C(=O)NC(CO)CO)(C(=O)NC(CO)CO)C%12%14c%12c%16c%17c%18c(c%12-%15)C7%12C(C(=O)NC(CO)CO)(C(=O)NC(CO)CO)C6%12c6c-5c5c7c(c6-%18)C%176C(C(=O)NC(CO)CO)(C(=O)NC(CO)CO)C6%12c6c-7c(c-2c2c6-c6c%12c-%16c%14c-%13c6C%106C(C(=O)NC(CO)CO)(C(=O)NC(CO)CO)C926)C513)C84C%11(C(=O)NC(CO)CO)C(=O)NC(CO)CO (stereo not drawn) [C60-ser, C60-serinol]
percent viability at the highest dose (NIH3T3 cells; NIH3T3, 1000 μM): downward trend
percent viability (NIH3T3 cells; NIH3T3, 1-1000 μM, 24, 48 or 72 hours): did not result in a significant decrease in viability
radiation-induced increase in respiratory capacity (N2A cells [1]): dampened and, in some cases, reduced to normal or slightly below normal levels
ROS (H2-DCFDA fluorescence) (N2A cells [2]): significant reduction in ROS
radiation-induced increase in respiratory capacity (HUVEC cells): dampened and, in some cases, reduced to normal or slightly below normal levels
Stability of C60-ser (hexakis-adduct peak) ([3]; Solid form at 4° C. under nitrogen, 1 day): 100 ± 2%
Stability of C60-ser (hexakis-adduct peak) ([3]; Solid form at 4° C. under nitrogen, 7 days): 100 ± 1%
Stability of C60-ser (hexakis-adduct peak) ([3]; Solid form at 4° C. under nitrogen, 28 days): 100 ± 1%
Stability of C60-ser (hexakis-adduct peak) ([3]; Solid form at 4° C. under nitrogen, 120 days): 100 ± 2%
Stability of C60-ser (hexakis-adduct peak) ([3]; Solution in DI water at 4° C., 1 day): 100 ± 2%
Stability of C60-ser (hexakis-adduct peak) ([3]; Solution in DI water at 4° C., 7 days): 100 ± 2%
Stability of C60-ser (hexakis-adduct peak) ([3]; Solution in DI water at 4° C., 28 days): 100 ± 3%
Stability of C60-ser (hexakis-adduct peak) ([3]; Solution in DI water at 4° C., 120 days): 98 ± 3%
Stability of C60-ser (hexakis-adduct peak) ([3]; Solution in DI water at room temperature, 1 day): 100 ± 2%
Stability of C60-ser (hexakis-adduct peak) ([3]; Solution in DI water at room temperature, 7 days): 100 ± 2%
Stability of C60-ser (hexakis-adduct peak) ([3]; Solution in DI water at room temperature, 28 days): 96 ± 3%
Stability of C60-ser (hexakis-adduct peak) ([3]; Solution in DI water at room temperature, 120 days): 95 ± 4%
degradation of the hexakis-adduct peak ([3]; solid at 4° C. under nitrogen): no degradation of the hexakis-adduct peak was observed
